According to article PMC5359181 (Protein & Cell, 2016):
Where two headings read alike, the source gives them in different places.

Columns and labels:
[1] = molecular target: T1, human equilibrative nucleoside transporter 1 (hENT1) (Homo sapiens, UniProt Q99808, N48Q); test: proteoliposome competition assay with 3H-adenosine, […] reduction at […]; format: biochemical; conditions: read-out: % reduction at 500 μmol/L
T1 construct: gene SLC29A1; full-length, residues 1-456
T1 sequence (Q99808 1-456 N48Q): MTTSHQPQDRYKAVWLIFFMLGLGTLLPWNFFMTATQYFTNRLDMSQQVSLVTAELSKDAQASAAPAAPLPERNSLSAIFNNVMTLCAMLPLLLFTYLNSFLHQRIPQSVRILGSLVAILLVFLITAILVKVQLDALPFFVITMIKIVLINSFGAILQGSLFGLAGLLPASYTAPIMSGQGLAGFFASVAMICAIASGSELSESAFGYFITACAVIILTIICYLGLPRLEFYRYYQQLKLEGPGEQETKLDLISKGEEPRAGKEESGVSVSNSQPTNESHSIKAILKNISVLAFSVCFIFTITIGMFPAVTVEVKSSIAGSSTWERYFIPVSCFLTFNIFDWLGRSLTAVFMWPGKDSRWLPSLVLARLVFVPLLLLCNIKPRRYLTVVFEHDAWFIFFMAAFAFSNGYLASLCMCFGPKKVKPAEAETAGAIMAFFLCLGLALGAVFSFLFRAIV

[2] = molecular target: T1, human equilibrative nucleoside transporter 1 (hENT1); test: ITC; format: binding

O=c1ccn([C@@H]2O[C@H](CO)[C@@H](O)[C@H]2O)c(=O)[nH]1 [uridine]
inhibition at 500 µM [1]: > 90%

Nc1ncnc2nc[nH]c12 [adenine]
Kd [2]: 5000 ± 500 µM

Nc1ncnc2c1ncn2[C@H]1C[C@H](O)[C@@H](CO)O1 [deoxyadenosine]
Kd ([2]; read-out: Kd): 190 ± 40 µM

Cc1cn([C@H]2C[C@H](O)[C@@H](CO)O2)c(=O)[nH]c1=O [thymidine]
inhibition at 500 µM [1]: > 90%

O=c1ccn([C@H]2C[C@H](O)[C@@H](CO)O2)c(=O)[nH]1 [deoxyuridine]
inhibition at 500 µM [1]: > 90%

Nc1nc2c(ncn2[C@H]2C[C@H](O)[C@@H](CO)O2)c(=O)[nH]1 [deoxyguanosine]
inhibition at 500 µM [1]: > 90%

Cc1cn([C@@H]2O[C@H](CO)[C@@H](O)[C@H]2O)c(=O)[nH]c1=O [5-methyluridine]
inhibition at 500 µM [1]: > 90%
